Data: ChEMBL document CHEMBL3638540, “Pyrolinone derivative and pharmaceutical composition comprising the same” (2013)

What follows are compounds tested against T1, P2X purinoceptor 3 (Homo sapiens, UniProt P56373) (assay: Inhibiton Assay: Inhibition assay using human P2X3 receptor gene (GeneBank accession number Y07683).).
T1 sequence (P56373 whole entry): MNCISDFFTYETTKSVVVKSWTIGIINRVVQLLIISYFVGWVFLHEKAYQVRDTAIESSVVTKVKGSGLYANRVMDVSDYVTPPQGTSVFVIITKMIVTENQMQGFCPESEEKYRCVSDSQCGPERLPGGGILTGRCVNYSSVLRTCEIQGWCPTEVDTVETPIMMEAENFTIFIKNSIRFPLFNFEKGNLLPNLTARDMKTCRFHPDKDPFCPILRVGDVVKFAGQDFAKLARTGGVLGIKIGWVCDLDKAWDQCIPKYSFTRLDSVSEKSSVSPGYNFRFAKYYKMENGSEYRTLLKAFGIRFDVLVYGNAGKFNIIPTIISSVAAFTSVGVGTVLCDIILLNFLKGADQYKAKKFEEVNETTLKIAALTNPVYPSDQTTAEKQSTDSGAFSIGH

IC50 [µM] | SMILES
0.238 | COc1ccccc1C1c2c(n[nH]c2C(C)(C)C)C(=O)N1c1ccc(Br)cc1 (stereo not drawn)
0.473 | COc1ccccc1C1c2c(n[nH]c2C(C)(C)CO)C(=O)N1c1ccc(Br)cc1 (stereo not drawn)
0.811 | COc1ncccc1C1c2c(n[nH]c2C(C)(C)C)C(=O)N1c1ccc(Br)cc1 (stereo not drawn)
